Assay [1] has as its system wildtype mouse prefrontal cortex layer V pyramidal neurons. Description: Brain slice current clamp recording of membrane properties and action potential firing. Format: cell-based. The protocol: Animals: Wildtype C57BL/6J mice were obtained from the Jackson Labs. Male and female pups, age postnatal day (P) 17-23, were used for the electrophysiological experiments. Animals were housed in the Unit for Laboratory Animal Medicine at the University of Michigan. All procedures were performed in accordance with the NIH and approved by the University of Michigan IACUC.
Brain Slice Preparation: Acute brain slices were prepared as described previously (Hull et al., Ann Clin Transl Neur., 2020; 7 (11): 2137-2149). Briefly, mice were anesthetized with isoflurane anesthesia and decapitated. Brains were carefully removed from the skull and placed in ice-cold carbogen-aerated slice solution containing (in mM): 110 sucrose, 62.5 NaCl, 2.5 KCl, 6 MgCl2, 1.25 KH2PO4, 26 NaHCO3, 0.5 CaCl2), 20 D-glucose, pH 7.35-7.40. Brains were blocked and slices were cut using a vibrating microtome (Electron Microscopy Sciences) in 250 μm thick coronal sections from prefrontal cortex. Slices were incubated in an aerated holding chamber containing slice solution for 30 minutes at room temperature and then incubated in 1:1 slice: artificial cerebrospinal solution (ACSF) for 30 minutes at 35° C. ACSF contained in mM (125 NaCl; 2.5 KCl; 1 MgCl2; 1.25 KH2PO4; 26 NaHCO3; 2 CaCl2); and 20 D-glucose (pH 7.35-7.40). Slices were then aerated in a holding chamber containing 100% ACSF for at least 30 min at room temperature before recording.
Action Potential Recording and Analysis: Individual brain slices were placed in an RC-26 recording chamber (Warner Instruments) and superfused with aerated ACSF at a flowrate of 2-3 mL/min equipped with an inline heater (Warner Instruments) to maintain the recording temperature at 33-35° C. Layer 5 pyramidal neurons were identified based on their large soma size, shape, and location using an AIR upright confocal microscope (Nikon) equipped with IR-DIC optics and a 40× water immersion objective. Only vertically oriented pyramidal cells were selected for recording. […] The junction potential was calculated to be 14.3 mV using the P-clamp junction potential calculator and all values presented in the study are uncorrected. Following break in at −94.3 mV in voltage clamp mode, the resting membrane potential was defined as the membrane potential in current clamp <10 s after initial break in for baseline or immediately after XOB perfusion. Repetitive action potential firing was elicited in whole-cell current clamp from the resting membrane potential in 1 s long current injections in 10 pA steps from −20 pA to +400 pA. There was a 1 s long 0 pA current injection between each sweep. Data were acquired at 20 kHz and were filtered at 10 kHz. Cells with an access resistance measured in voltage clamp >20 MΩ or RMP more depolarized than −64.3 mV were not used. Access resistance and pipette capacitance were compensated using bridge balance. Whole cell capacitance was measured using P-clamp whole cell capacitance compensation in voltage clamp with 10 mV depolarizing steps from −94.3 mV. Automated action potential (AP) quantification and analysis was performed using custom MATLAB (MathWorks) software. APs were defined as the voltage crossing 0 mV after a dV/dt>10 mV/ms, defined here as the AP threshold. Input resistance was calculated using Ohm's law with a −10 pA current injection from the resting membrane potential after 250 ms.

Assay [2] addresses 5-HT2A (Homo sapiens, UniProt P28223). Description: Gq-mediated calcium flux assay, Flp-In 293 T-Rex inducible cells (agonist and antagonist mode). Format: cell-based. More on the design: expressed in transfected cells.

Where “and” joins values, the source holds several entries; their conditions need not be identical. Equal entries are not always repeated.

Sequence of 5-HT2A (P28223 whole entry): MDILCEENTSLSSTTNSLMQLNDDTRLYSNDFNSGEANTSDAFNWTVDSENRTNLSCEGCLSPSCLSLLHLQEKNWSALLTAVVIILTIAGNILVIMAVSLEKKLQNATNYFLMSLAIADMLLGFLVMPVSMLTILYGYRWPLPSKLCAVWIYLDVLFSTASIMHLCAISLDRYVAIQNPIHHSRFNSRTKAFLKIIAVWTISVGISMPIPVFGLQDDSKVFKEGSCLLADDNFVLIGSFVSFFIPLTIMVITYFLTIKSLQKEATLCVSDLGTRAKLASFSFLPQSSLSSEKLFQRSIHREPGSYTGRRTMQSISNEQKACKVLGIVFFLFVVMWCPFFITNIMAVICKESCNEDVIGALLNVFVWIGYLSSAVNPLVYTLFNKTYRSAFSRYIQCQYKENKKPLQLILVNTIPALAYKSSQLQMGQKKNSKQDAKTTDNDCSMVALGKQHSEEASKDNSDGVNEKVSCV

A word on the IC50: it is the point on the concentration scale where inhibition reaches its midpoint. What is called EC50 is the concentration that produces a half-maximal response. As to `COc1cc(CCNCCCCCCOCCCCc2ccccc2)c(OC)cc1Br` [XOB, N-(4-bromo-2,5-dimethoxyphenethyl)-6-(4-phenylbutoxy)hexan-1-amine], in assay [1] (10 μM), the “First AP Max dv/dt” value was 402.68±46.20 mV/ms and 402.68 mV/ms; the “First AP Min dv/dt” value is reported as −91.32±8.95 mV/ms; the “First AP Peak Amplitude” value was 41.21±2.92 mV and 41.21 ± 2.29 mV; the “First AP Threshold” value is listed as −38.43±1.23 mV. Also, in assay [1] (10 μM), the “Input Resistance” value is listed as 100.08±30.18 MΩ, the “Max Firing Rate @ 300 pA” value amounted to 12.25 ± 1.53 Hz, the “Max Firing Rate @ 400 pA” value is 14±1.82 Hz and the “Resting Vm” value was −63.25±1.15 mV. Also, in assay [1] (10 μM), the “Spike Width” value amounted to 0.76 ± 0.06 ms. Also, in assay [1] (10 μM vs baseline), the “depolarization of the resting membrane potential” value is “+8.45±1.15 mV” and the “reduction in maximum firing frequency at 400 pA current injections” value is reported as around 12 Hz. Also, the “agonist activity at 5-HT2A” value in assay [2] (agonist mode, up to 10 μM) was “little to no measurable agonist activity”. In assay [2] (antagonist mode, 3.2 nM 5-HT, read-out: IC50, antagonism at 5-HT2A), the IC50 turned out to be 1300 nM. Also, in assay [2] (antagonist mode, read-out: EC50, antagonizes 5-HT2A), the EC50 came to 1300 nM.
